Measured values taken from patent publication US20130130992A1, “DIPEPTIDE DERIVATIVE FOR THE TREATMENT OF CANCER” (ONCOTEST GMBH, priority 2010, published 2013).

Assays:
SXF TE671 = experiment: Monolayer propidium iodide assay, SXF TE671; format: cell-based; conditions: Homo sapiens, TE-671, 96 h; SXF TE671, Sarcoma; 4 days of treatment
Source text: (§1) Oncotest GmbH, Germany's proprietary tumor cell line panel comprises 40 cell lines. These cell lines were derived from 15 different tumor histotypes, each represented by 1 to 6 different cell lines. Cell lines were established from cancer of the bladder (3), colon (4), head and neck (1), lung (6), breast (3), pancreas (3), prostate (4), ovary (2), kidney (3), liver (1), stomach (1) and the uteri body (1), as well as from melanoma (3), sarcoma (2) and pleuramesothelioma (3). Out of these 40 cell lines, 24 cell lines were established at Oncotest, from patient-derived tumor xenografts. […]
(§2) Stock solutions of the compound of formula (1) (3.3 mM in DMSO) were prepared and stored in small aliquots (200 μl) at −20° C. […] Each concentration was evaluated in triplicate. […]
(§3) Cells were plated in 96-well flat-bottom microtiter plates at a cell density of 4,000 to 20,000 cells/well. […] After an incubation period of 1-2 hours at room temperature, fluorescence (FU) was measured using the Cytofluor 4000 microplate reader (excitation λ=530 nm, emission λ=620 nm) to quantify the amount of attached viable cells. […] Based on the T/C values, relative IC50 values were determined by non-linear regression (log [conc. of inhibitor] versus response (% T/C)) using the GraphPad Prism® analysis software (Prism 5 for Windows, version 5.01, GraphPad Software Inc., CA). […]

LXFA 289L = experiment: Monolayer propidium iodide assay, LXFA 289L; format: cell-based; conditions: Homo sapiens, 96 h, Lung, 4 days of treatment
Source text: as §1, §2, §3

PXF 1752L = experiment: Monolayer propidium iodide assay, PXF 1752L; format: cell-based; conditions: Homo sapiens, 96 h, Pleuramesothelioma, 4 days of treatment
Source text: as §1, §2, §3

MEXF 462NL = experiment: Monolayer propidium iodide assay, MEXF 462NL; format: cell-based; conditions: Homo sapiens, 96 h, Melanoma, 4 days of treatment
Source text: as §1, §2, §3

RXF 393NL = experiment: Monolayer propidium iodide assay, RXF 393NL; format: cell-based; conditions: Homo sapiens, 96 h, Renal, 4 days of treatment
Source text: as §1, §2, §3

SXF SAOS2 = experiment: Monolayer propidium iodide assay, SXF SAOS2; format: cell-based; conditions: Homo sapiens, SAOS-2, 96 h; SXF SAOS2, Sarcoma; 4 days of treatment
Source text: as §1, §2, §3

LXFL H 460 = experiment: Monolayer propidium iodide assay, LXFL H 460; format: cell-based; conditions: Homo sapiens, NCI-H460, 96 h; LXFL H 460, Lung; 4 days of treatment
Source text: as §1, §2, §3

PRXF PC3M = experiment: Monolayer propidium iodide assay, PRXF PC3M; format: cell-based; conditions: Homo sapiens, PC-3M, 96 h, Prostate, 4 days of treatment
Source text: as §1, §2, §3

LXFA 629L = experiment: Monolayer propidium iodide assay, LXFA 629L; format: cell-based; conditions: Homo sapiens, 96 h, Lung, 4 days of treatment
Source text: as §1, §2, §3

UXF 1138L = experiment: Monolayer propidium iodide assay, UXF 1138L; format: cell-based; conditions: Homo sapiens, 96 h, Uterus, 4 days of treatment
Source text: as §1, §2, §3

RXF 486L = experiment: Monolayer propidium iodide assay, RXF 486L; format: cell-based; conditions: Homo sapiens, 96 h, Renal, 4 days of treatment
Source text: as §1, §2, §3

LXFL 1121L = experiment: Monolayer propidium iodide assay, LXFL 1121L; format: cell-based; conditions: Homo sapiens, 96 h, Lung, 4 days of treatment
Source text: as §1, §2, §3

PAXF PANC 1 = experiment: Monolayer propidium iodide assay, PAXF PANC 1; format: cell-based; conditions: Homo sapiens, 96 h; PAXF PANC 1, Pancreas; 4 days of treatment
Source text: as §1, §2, §3

PAXF 546L = experiment: Monolayer propidium iodide assay, PAXF 546L; format: cell-based; conditions: Homo sapiens, 96 h, Pancreas, 4 days of treatment
Source text: as §1, §2, §3

BXF 1352L = experiment: Monolayer propidium iodide assay, BXF 1352L; format: cell-based; conditions: Homo sapiens, 96 h, Bladder, 4 days of treatment
Source text: as §1, §2, §3

RXF 1781L = experiment: Monolayer propidium iodide assay, RXF 1781L; format: cell-based; conditions: Homo sapiens, 96 h, Renal, 4 days of treatment
Source text: as §1, §2, §3

OVXF OVCAR3 = experiment: Monolayer propidium iodide assay, OVXF OVCAR3; format: cell-based; conditions: Homo sapiens, OVCAR-3, 96 h; OVXF OVCAR3, Ovarian; 4 days of treatment
Source text: as §1, §2, §3

PRXF DU 145 = experiment: Monolayer propidium iodide assay, PRXF DU 145; format: cell-based; conditions: Homo sapiens, 96 h; PRXF DU 145, Prostate; 4 days of treatment
Source text: as §1, §2, §3

CXF HCT 116 = experiment: Monolayer propidium iodide assay, CXF HCT 116; format: cell-based; conditions: Homo sapiens, 96 h; CXF HCT 116, Colon; 4 days of treatment
Source text: as §1, §2, §3

OVXF 899L = experiment: Monolayer propidium iodide assay, OVXF 899L; format: cell-based; conditions: Homo sapiens, 96 h, Ovarian, 4 days of treatment
Source text: as §1, §2, §3

[1] = Solubility (physical properties); format: physicochemical
PAXF 1657L = experiment: Monolayer propidium iodide assay, PAXF 1657L; format: cell-based; conditions: Homo sapiens, 96 h, Pancreas, 4 days of treatment
Source text: as §1, §2, §3

MAXF MDA 231 = experiment: Monolayer propidium iodide assay, MAXF MDA 231; format: cell-based; conditions: Homo sapiens, MDA-MB-231, 96 h; MAXF MDA 231, Mammary; 4 days of treatment
Source text: as §1, §2, §3

BXF T 24 = experiment: Monolayer propidium iodide assay, BXF T 24; format: cell-based; conditions: Homo sapiens, 96 h; BXF T 24, Bladder; 4 days of treatment
Source text: as §1, §2, §3

PRXF 22RV1 = experiment: Monolayer propidium iodide assay, PRXF 22RV1; format: cell-based; conditions: Homo sapiens, 96 h; PRXF 22RV1, Prostate; 4 days of treatment
Source text: as §1, §2, §3

LXFA 526L = experiment: Monolayer propidium iodide assay, LXFA 526L; format: cell-based; conditions: Homo sapiens, 96 h, Lung, 4 days of treatment
Source text: as §1, §2, §3

Which results are given for `CCCC1CCCCCC(O)CC(=O)NC2CSSCC(NC2=O)C(=O)O1` (stereo not shown) [compound of formula (1)]?
IC50 (SXF TE671): 82 nM; IC50 (LXFA 289L): 41 nM; IC50 (PXF 1752L): 187 nM; IC50 (MEXF 462NL): 149 nM; IC50 (RXF 393NL): 323 nM; IC50 (SXF SAOS2): 185 nM; IC50 (LXFL H 460): 146 nM; IC50 (PRXF PC3M): 47 nM; IC50 (LXFA 629L): 40 nM; IC50 (UXF 1138L): 126 nM; IC50 (RXF 486L): 159 nM; IC50 (LXFL 1121L): 47 nM; IC50 (PAXF PANC 1): 59 nM; IC50 (PAXF 546L): 16 nM; IC50 (BXF 1352L): 103 nM; IC50 (RXF 1781L): 260 nM; IC50 (OVXF OVCAR3): 195 nM; IC50 (PRXF DU 145): 52 nM; IC50 (CXF HCT 116): 48 nM; IC50 (OVXF 899L): 301 nM; Solubility ([1]; in chloroform and methanol): sparingly soluble in chloroform and methanol; and; Solubility ([1]; in pyridine, acetic acid, dimethyl sulfoxide): Soluble in pyridine, acetic acid, dimethyl sulfoxide;; Solubility ([1]; in water): insoluble in water; IC50 (PAXF 1657L): 39 nM; IC50 (MAXF MDA 231): 90 nM; IC50 (BXF T 24): 50 nM; IC50 (PRXF 22RV1): 159 nM; IC50 (LXFA 526L): 21 nM
